# Measured values as given in paper PMC10584170, “Machine learning-based phenotypic imaging to characterise the targetable biology of Plasmodium falciparum male gametocytes for the development of transmission-blocking antimalarials” (PLOS Pathogens, 2023).
# Like-named read-outs stand apart in the source and are kept apart here.
# Assays:
# [1] = tested on: P. falciparum male gametocytes; assay: P. falciparum Dual Gamete Formation Assay (PfDGFA), male readout (exflagellation); assay type: cell-based, Plasmodium falciparum NF54; conditions: for Activity: hit = >50% inhibition in male or female readout in at least 3 replicates, 0 = no class assigned
# Description: (§1) P. falciparum NF54 (originally isolated from an imported malaria case in the Netherlands in the 1980s; BEI Resources, cat. No. MRA-1000) strain asexual parasites were maintained between 0.3–5% parasitaemia by regular passage in complete culture medium (RPMI supplemented with 25 mM HEPES, 50 μg ml^−1 hypoxanthine, 4.8 g l^−1 NaHCO3, 2mM L-glutamine, 5% pooled type AB serum, 0.5% Albumax II (Gibco)) at 4% haematocrit in washed whole blood (National Blood and Transfusion Service or Centro de Transfusiones de la Comunidad de Madrid CTCM) under a 1% O2/3% CO2/96% N2 environment. Gametocytes were induced by seeding culture flasks at 2% parasitaemia/4% haematocrit and subjecting them to daily medium changes for 14 days whilst maintaining a temperature of 37°C at all times. On Day 14, the maturity of gametocytes was assessed by quantifying male gametogenesis (exflagellation). A 20 μl sample of gametocyte culture was mixed with equal volume of ookinete medium (complete culture medium supplemented with 0.1 μM xanthurenic acid) at room temperature and transferred to a haemocytometer. After 20 min at room temperature, exflagellation was accurately quantified as described in Delves et al. 2016 [17].
# (§2) The Pf DGFA was performed as described in Delves et al. 2016 [17]. […] Plates were then incubated for 24 h at 37°C in a humidified box under a 1% O2/3% CO2/96% N2 gas mix. Gametogenesis was triggered by addition of 10 μl per well of ookinete medium + 0.27 μg ml^-1 Cy3-labelled anti-Pfs25 antibody. Plates were incubated on a metal block at 4°C for 4 min to ensure even cooling, then 28°C for a further 4 min. Exflagellation was recorded by capturing 10 frames over 1 s under brightfield illumination using a x4 objective with a 1.5x zoom (effectively x6) attached to an automated Nikon Ti fluorescence microscope. After recording exflagellation, plates were incubated for a further 24 h in the dark at 28°C to ensure maximal expression of Pfs25 by female gametes. The plates were then returned to the microscope and female gametes imaged at x6 using fluorescence microscopy.
# (§3) Exflagellation centres and female gametes were quantified using custom image analysis pipelines developed within ICY Bioimage Analysis (https://icy.bioimageanalysis.org/).
# [2] = tested on: P. falciparum female gametocytes; assay: P. falciparum Dual Gamete Formation Assay (PfDGFA), female readout (Pfs25-positive female gametes); assay type: cell-based, Plasmodium falciparum NF54
# Description: as §1, §2, §3
# [3] = PfDGFA at 2µM, 24h preincubation with gametocytes prior to induction of gametogenesis, replicate R1
# [4] = PfDGFA at 2µM, 24h preincubation with gametocytes prior to induction of gametogenesis, replicate R3
# [5] = PfDGFA at 2µM, 24h preincubation with gametocytes prior to induction of gametogenesis, replicate R4
# [6] = PfDGFA at 2µM, 24h preincubation, average of replicates
# [7] = 2µM, 24h preincubation with gametocytes prior to induction of gametogenesis, average of replicates
# [8] = 2µM, 24h preincubation with gametocytes prior to induction of gametogenesis, replicate R1
# [9] = 2µM, 24h preincubation with gametocytes prior to induction of gametogenesis, replicate R3
# [10] = 2µM, 24h preincubation with gametocytes prior to induction of gametogenesis, replicate R4
# [11] = 2µM, 24h preincubation, hits selected on >50% inhibition in the male readout across replicates
# [12] = PfDGFA at 2µM, 24h preincubation
# [13] = 2µM, 24h preincubation, hits selected on >50% inhibition in the female readout across replicates
# [14] = 2µM, 24h preincubation with gametocytes, average of replicates
# [15] = 2µM, 24h preincubation with gametocytes, replicate R1
# [16] = 2µM, 24h preincubation with gametocytes, replicate R3
# [17] = 2µM, 24h preincubation with gametocytes, replicate R4
# [18] = 2µM, 24h preincubation, number of replicates with >50% inhibition in the male readout
# [19] = 2µM, 24h preincubation, number of replicates with >50% inhibition in the female readout
smiles,measurement,setting,value
c1ccc2sc(Sc3ncnc4sccc34)nc2c1 [TCMDC-125539],Selectivity Ratio M,[1]; HepG2 Tox50 versus male IC50,337.73
same,inhibition at 2 µM,"[1]; Plasmodium falciparum, 2µM, 24h preincubation with gametocytes, average of replicates, read-out: Average inhibition male (%)",97.1%
same,inhibition at 2 µM,"[1]; Plasmodium falciparum, 2µM, 24h preincubation with gametocytes, replicate R1, read-out: % inhibition male (individual replicates) R1",100%
same,inhibition at 2 µM,"[1]; Plasmodium falciparum, 2µM, 24h preincubation with gametocytes, replicate R2, read-out: % inhibition male (individual replicates) R2",97.4%
same,inhibition at 2 µM,"[1]; Plasmodium falciparum, 2µM, 24h preincubation with gametocytes, replicate R3, read-out: % inhibition male (individual replicates) R3",95.7%
same,inhibition at 2 µM,"[1]; Plasmodium falciparum, 2µM, 24h preincubation with gametocytes, replicate R4, read-out: % inhibition male (individual replicates) R4",94.9%
same,IC50,"[1]; Plasmodium falciparum, PfDGFA, 24 h incubation with gametocytes before induction, exflagellation readout, read-out: Male IC50",0.3 µM
same,Selectivity ratio F,[2]; HepG2 Tox50 versus female IC50,340.93
same,inhibition at 2 µM,"[2]; Plasmodium falciparum, 2µM, 24h preincubation with gametocytes, average of replicates, read-out: Average inhibition female (%)",60%
same,inhibition at 2 µM,"[2]; Plasmodium falciparum, 2µM, 24h preincubation with gametocytes, replicate R1, read-out: % inhibition female (individual replicates) R1",39.3%
same,inhibition at 2 µM,"[2]; Plasmodium falciparum, 2µM, 24h preincubation with gametocytes, replicate R2, read-out: % inhibition female (individual replicates) R2",92.2%
same,inhibition at 2 µM,"[2]; Plasmodium falciparum, 2µM, 24h preincubation with gametocytes, replicate R3, read-out: % inhibition female (individual replicates) R3",35.1%
same,inhibition at 2 µM,"[2]; Plasmodium falciparum, 2µM, 24h preincubation with gametocytes, replicate R4, read-out: % inhibition female (individual replicates) R4",73.5%
same,IC50,"[2]; Plasmodium falciparum, PfDGFA, 24 h incubation with gametocytes before induction, female gamete readout, read-out: Female IC50",0.29 µM
CN1CCN(c2cc(-c3cccnc3)nc(-c3ccncc3)n2)CC1 [TCMDC-125593],% inhibition male (individual replicates) R1,[1]; [3],-6.4%
same,% inhibition male (individual replicates) R3,[1]; [4],-15.1%
same,% inhibition male (individual replicates) R4,[1]; [5],5.5%
same,Average inhibition male (%),[1]; [6],-4.3%
same,% inhibition female (individual replicates) R1,[2]; [3],-2.3%
same,% inhibition female (individual replicates) R3,[2]; [4],-6.8%
same,% inhibition female (individual replicates) R4,[2]; [5],22.4%
same,Average inhibition female (%),[2]; [6],0.0475%
Br.CCCCCCCCn1c2c(c(=N)c3c1CCC3)CCCC2 [TCMDC-125653],Average inhibition male (%),[1]; [7],42.3%
same,% inhibition male (individual replicates) R1,[1]; [8],42.8%
same,% inhibition male (individual replicates) R3,[1]; [9],52.3%
same,% inhibition male (individual replicates) R4,[1]; [10],40.6%
same,HitlevelM,[1]; [11],1
same,Activity,[1]; [12],0
same,Average inhibition female (%),[2]; [7],10.3%
same,% inhibition female (individual replicates) R1,[2]; [8],8.6%
same,% inhibition female (individual replicates) R3,[2]; [9],3.3%
same,% inhibition female (individual replicates) R4,[2]; [10],15.0%
same,HitlevelF,[2]; [13],0
COc1ccc2nc3cc(Cl)ccc3c(N)c2c1.Cl [TCMDC-125835],Average inhibition male (%),[1]; [14],96.0%
same,% inhibition male (individual replicates) R1,[1]; [15],94.1%
same,% inhibition male (individual replicates) R3,[1]; [16],90.9%
same,% inhibition male (individual replicates) R4,[1]; [17],101.6%
same,Average inhibition female (%),[2]; [14],50.6%
same,% inhibition female (individual replicates) R1,[2]; [15],39.5%
same,% inhibition female (individual replicates) R3,[2]; [16],15.3%
same,% inhibition female (individual replicates) R4,[2]; [17],62.7%
Clc1ccc(Cc2nc3ccccc3[nH]2)cc1Cl [TCMDC-125878],% inhibition male (individual replicates) R1,[1]; [3],0.8%
same,% inhibition male (individual replicates) R3,[1]; [4],-14.5%
same,% inhibition male (individual replicates) R4,[1]; [5],2.2%
same,Average inhibition male (%),[1]; [6],-4.5%
same,% inhibition female (individual replicates) R1,[2]; [3],8.9%
same,% inhibition female (individual replicates) R3,[2]; [4],-15.0%
same,% inhibition female (individual replicates) R4,[2]; [5],-0.8%
same,Average inhibition female (%),[2]; [6],0.655%
COc1ccc(CCNCCCCCCNCCc2ccc(-c3ccccc3)cc2)cc1OC.Cl [TCMDC-131267],Average inhibition male (%),[1]; [14],91.2%
same,% inhibition male (individual replicates) R1,[1]; [15],90.5%
same,% inhibition male (individual replicates) R4,[1]; [17],88.4%
same,Average inhibition female (%),[2]; [14],51.9%
same,% inhibition female (individual replicates) R1,[2]; [15],49.5%
same,% inhibition female (individual replicates) R3,[2]; [16],51.6%
same,% inhibition female (individual replicates) R4,[2]; [17],50.9%
COc1ccc(CCNCCCCCNCCc2ccc(Cl)cc2)cc1OC.Cl [TCMDC-131269],Average inhibition male (%),[1]; [7],50.1%
same,% inhibition male (individual replicates) R1,[1]; [8],46.0%
same,% inhibition male (individual replicates) R3,[1]; [9],29.0%
same,% inhibition male (individual replicates) R4,[1]; [10],62.2%
same,HitlevelM,[1]; [11],2
same,Activity,[1]; [12],0
same,Average inhibition female (%),[2]; [7],7.8%
same,% inhibition female (individual replicates) R1,[2]; [8],17.8%
same,% inhibition female (individual replicates) R3,[2]; [9],-21.2%
same,% inhibition female (individual replicates) R4,[2]; [10],18.8%
same,HitlevelF,[2]; [13],0
Br.Oc1ccc(CCNCCCCCCNCCc2ccc(Cl)c3ccccc23)cc1O [TCMDC-131271],Average inhibition male (%),[1]; [7],50.9%
same,% inhibition male (individual replicates) R1,[1]; [8],51.3%
same,% inhibition male (individual replicates) R3,[1]; [9],62.1%
same,% inhibition male (individual replicates) R4,[1]; [10],62.3%
same,HitlevelM,[1]; [18],3
same,Average inhibition female (%),[2]; [7],16.5%
same,% inhibition female (individual replicates) R1,[2]; [8],16.8%
same,% inhibition female (individual replicates) R3,[2]; [9],9.0%
same,% inhibition female (individual replicates) R4,[2]; [10],24.5%
same,HitlevelF,[2]; [19],0
COc1ccc(CCNCCCCCCNCCc2ccc(Cl)c(Cl)c2)cc1OC.Cl [TCMDC-131275],Average inhibition male (%),[1]; [7],39.4%
same,% inhibition male (individual replicates) R1,[1]; [8],42.2%
same,% inhibition male (individual replicates) R3,[1]; [9],31.4%
same,% inhibition male (individual replicates) R4,[1]; [10],46.9%
same,HitlevelM,[1]; [11],0
same,Activity,[1]; [12],0
same,Average inhibition female (%),[2]; [7],10.6%
same,% inhibition female (individual replicates) R1,[2]; [8],26.6%
same,% inhibition female (individual replicates) R3,[2]; [9],-14.3%
same,% inhibition female (individual replicates) R4,[2]; [10],22.3%
same,HitlevelF,[2]; [13],0
Br.CC(C)(Cc1ccc(Cl)cc1)NCCCCCCNCCc1ccc(O)c(O)c1 [TCMDC-131277],Average inhibition male (%),[1]; [7],21.3%
same,% inhibition male (individual replicates) R1,[1]; [8],17.2%
same,% inhibition male (individual replicates) R3,[1]; [9],18.9%
same,% inhibition male (individual replicates) R4,[1]; [10],31.6%
same,HitlevelM,[1]; [18],0
same,Average inhibition female (%),[2]; [7],25.5%
same,% inhibition female (individual replicates) R1,[2]; [8],31.9%
same,% inhibition female (individual replicates) R3,[2]; [9],42.8%
same,% inhibition female (individual replicates) R4,[2]; [10],1.4%
same,HitlevelF,[2]; [19],0
COc1ccc(CCNCCCCCCNCCCc2ccc(Cl)cc2)cc1OC.Cl [TCMDC-131280],Average inhibition male (%),[1]; [7],28.8%
same,% inhibition male (individual replicates) R1,[1]; [8],30.2%
same,% inhibition male (individual replicates) R3,[1]; [9],15.3%
same,% inhibition male (individual replicates) R4,[1]; [10],32.2%
same,HitlevelM,[1]; [11],0
same,Activity,[1]; [12],0
same,Average inhibition female (%),[2]; [7],17.7%
same,% inhibition female (individual replicates) R1,[2]; [8],16.6%
same,% inhibition female (individual replicates) R3,[2]; [9],13.1%
same,% inhibition female (individual replicates) R4,[2]; [10],24.0%
same,HitlevelF,[2]; [13],0
